Assay results as given in patent publication US11053300B2, “Membrane span-kinase fusion protein and the uses thereof” (VIB VZW, priority 2012, dated 2021).

Columns and labels:
ERN1 [1] = target: T1, ERN1 (Homo sapiens, UniProt O75460); settings: reported, Feldman and Koong, 2007; cited from earlier work
Target sequence in this assay (O75460 19-977, species assumed): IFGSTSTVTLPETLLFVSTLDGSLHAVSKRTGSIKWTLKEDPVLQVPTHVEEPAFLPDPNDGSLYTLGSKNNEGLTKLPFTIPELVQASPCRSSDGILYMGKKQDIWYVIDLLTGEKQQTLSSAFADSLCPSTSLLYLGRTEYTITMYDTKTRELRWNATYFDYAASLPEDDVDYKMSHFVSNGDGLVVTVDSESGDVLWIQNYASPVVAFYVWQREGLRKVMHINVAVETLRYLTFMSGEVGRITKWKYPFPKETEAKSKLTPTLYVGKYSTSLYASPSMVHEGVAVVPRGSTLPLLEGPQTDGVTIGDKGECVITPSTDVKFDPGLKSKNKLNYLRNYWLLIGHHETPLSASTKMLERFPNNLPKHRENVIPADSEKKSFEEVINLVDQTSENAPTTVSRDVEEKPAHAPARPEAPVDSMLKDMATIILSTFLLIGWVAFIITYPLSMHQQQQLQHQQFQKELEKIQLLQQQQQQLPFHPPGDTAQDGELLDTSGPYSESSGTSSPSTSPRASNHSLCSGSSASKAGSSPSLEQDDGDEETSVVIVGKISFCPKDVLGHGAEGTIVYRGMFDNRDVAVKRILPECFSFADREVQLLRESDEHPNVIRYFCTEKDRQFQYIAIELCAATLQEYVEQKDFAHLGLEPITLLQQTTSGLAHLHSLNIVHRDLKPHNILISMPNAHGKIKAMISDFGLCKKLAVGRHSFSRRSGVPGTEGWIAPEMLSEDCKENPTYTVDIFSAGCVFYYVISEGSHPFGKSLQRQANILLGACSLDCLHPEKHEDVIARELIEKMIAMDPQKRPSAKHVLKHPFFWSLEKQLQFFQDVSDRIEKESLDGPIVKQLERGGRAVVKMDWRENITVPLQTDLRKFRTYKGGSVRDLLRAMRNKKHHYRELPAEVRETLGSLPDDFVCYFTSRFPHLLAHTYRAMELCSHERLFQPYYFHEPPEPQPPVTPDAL

ERN1 [2] = target: T1, ERN1; test: ERN1 dimerization, ERN1-Tyk2(C)/ERN1-gp130 luciferase reporter assay; format: cell-based; design: Flag (N); expressed in transfected cells; host or cells: HEK293-T
Method: Transfections were carried out using a standard calcium phosphate method. HEK293-T cells were seeded in black tissue-culture treated 96-well plates at 10.000 cells/well in 100 μl culture medium (DMEM supplemented with 10% FCS). Twenty-four hours later, plasmid DNA mixes were prepared that contained plasmids encoding fusion proteins with the first and second interacting proteins and reporter plasmids. The DNA was supplemented with 5 μl 2.5M CaCl2) and double distilled water to a final volume of 50 μl. This mixture was added drop wise to 50 μl 2×HeBS buffer (280 mM NaCl, 1.5 mM Na2HPO4, 50 mM Hepes; pH 7.05) while vigorously vortexing. After incubation at room temperature for 15 min. to allow DNA precipitates to form, the solution was added to the cells at 10 μl/well. Cells were incubated at 37° C., 8% CO2. Twenty-four hours after transfection, cells were treated with the indicated amounts of ligand, either alone or combined with the indicated amount of antagonist. […] Another twenty-four hours later, luciferase activity was measured using the Luciferase Assay System kit (Promega) on a TopCount luminometer (Perkin-Elmer). Each transfection was done in triplicate and the average of the luciferase activity readings was used in the calculations.
Tunicamycin (Sigma T7765; 2 mg/ml stock in DMSO) was diluted in culture medium and added to the cells 24 h prior to luciferase signal read-out. […]
Target sequence in this assay (O75460 with tags, fused parts or gaps): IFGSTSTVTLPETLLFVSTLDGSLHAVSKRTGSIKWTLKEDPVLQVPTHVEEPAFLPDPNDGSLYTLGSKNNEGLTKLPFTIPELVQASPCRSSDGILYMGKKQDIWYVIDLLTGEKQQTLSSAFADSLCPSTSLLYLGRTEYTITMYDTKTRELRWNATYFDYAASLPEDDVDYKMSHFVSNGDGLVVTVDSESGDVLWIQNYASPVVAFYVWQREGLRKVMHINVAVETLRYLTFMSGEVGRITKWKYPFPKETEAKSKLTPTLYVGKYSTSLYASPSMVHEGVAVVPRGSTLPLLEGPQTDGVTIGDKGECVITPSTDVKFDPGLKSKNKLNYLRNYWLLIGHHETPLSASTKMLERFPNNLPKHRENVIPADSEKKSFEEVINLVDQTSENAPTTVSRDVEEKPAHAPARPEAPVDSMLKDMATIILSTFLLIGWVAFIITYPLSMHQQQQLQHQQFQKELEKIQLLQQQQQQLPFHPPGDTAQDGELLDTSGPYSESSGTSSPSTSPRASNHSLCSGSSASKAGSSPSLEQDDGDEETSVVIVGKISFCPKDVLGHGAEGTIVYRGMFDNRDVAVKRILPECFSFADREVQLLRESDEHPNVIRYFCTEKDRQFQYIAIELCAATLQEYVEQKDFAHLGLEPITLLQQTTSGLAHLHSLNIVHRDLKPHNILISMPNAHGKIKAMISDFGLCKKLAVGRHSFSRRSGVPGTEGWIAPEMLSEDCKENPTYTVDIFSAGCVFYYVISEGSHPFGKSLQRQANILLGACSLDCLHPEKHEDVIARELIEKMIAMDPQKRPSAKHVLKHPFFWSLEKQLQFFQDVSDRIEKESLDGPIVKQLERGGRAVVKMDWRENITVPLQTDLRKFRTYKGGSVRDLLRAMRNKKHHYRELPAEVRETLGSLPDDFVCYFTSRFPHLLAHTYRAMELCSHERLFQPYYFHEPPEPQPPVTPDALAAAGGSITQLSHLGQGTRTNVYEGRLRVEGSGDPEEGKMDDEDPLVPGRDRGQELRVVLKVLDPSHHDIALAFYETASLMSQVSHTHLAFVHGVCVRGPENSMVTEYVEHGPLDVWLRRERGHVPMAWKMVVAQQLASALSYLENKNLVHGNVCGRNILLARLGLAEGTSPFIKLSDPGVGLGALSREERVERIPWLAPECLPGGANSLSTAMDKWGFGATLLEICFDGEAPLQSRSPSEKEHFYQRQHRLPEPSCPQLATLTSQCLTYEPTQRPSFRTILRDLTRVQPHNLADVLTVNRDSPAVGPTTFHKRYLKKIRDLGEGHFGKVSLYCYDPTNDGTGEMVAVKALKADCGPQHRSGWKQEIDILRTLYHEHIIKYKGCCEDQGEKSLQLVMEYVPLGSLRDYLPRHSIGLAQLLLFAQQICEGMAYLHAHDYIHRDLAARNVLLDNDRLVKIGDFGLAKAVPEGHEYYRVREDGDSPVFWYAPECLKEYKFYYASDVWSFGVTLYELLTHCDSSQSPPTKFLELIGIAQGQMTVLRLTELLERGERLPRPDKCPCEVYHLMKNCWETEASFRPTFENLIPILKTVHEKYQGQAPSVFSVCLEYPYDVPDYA

[3] = target: T2, human somatostatin receptor 2 (SSTR2) (Homo sapiens, UniProt P30874); test: Ligand-dependent SSTR2-ARRB2 interaction, Tyk2(C)/gp130 fusion STAT3-luciferase reporter assay; format: cell-based; settings: for effect of antagonist on SSTR2-ARRB2 interaction signal: 1 μM somatostatin, 0.05 or 0.5 μM CYN154806, 0.1 or 1 μM losartan or telmisartan, FIG. 4 transfection b; for effect of antagonist on SSTR2-ARRB2 interaction signal, dose-response: 10 μM somatostatin, antagonist 10^-13 M up to 10^-6 M, FIG. 5A
T2 construct: expressed in transfected cells; host or cells: HEK293-T
T2 sequence (P30874 with tags, fused parts or gaps): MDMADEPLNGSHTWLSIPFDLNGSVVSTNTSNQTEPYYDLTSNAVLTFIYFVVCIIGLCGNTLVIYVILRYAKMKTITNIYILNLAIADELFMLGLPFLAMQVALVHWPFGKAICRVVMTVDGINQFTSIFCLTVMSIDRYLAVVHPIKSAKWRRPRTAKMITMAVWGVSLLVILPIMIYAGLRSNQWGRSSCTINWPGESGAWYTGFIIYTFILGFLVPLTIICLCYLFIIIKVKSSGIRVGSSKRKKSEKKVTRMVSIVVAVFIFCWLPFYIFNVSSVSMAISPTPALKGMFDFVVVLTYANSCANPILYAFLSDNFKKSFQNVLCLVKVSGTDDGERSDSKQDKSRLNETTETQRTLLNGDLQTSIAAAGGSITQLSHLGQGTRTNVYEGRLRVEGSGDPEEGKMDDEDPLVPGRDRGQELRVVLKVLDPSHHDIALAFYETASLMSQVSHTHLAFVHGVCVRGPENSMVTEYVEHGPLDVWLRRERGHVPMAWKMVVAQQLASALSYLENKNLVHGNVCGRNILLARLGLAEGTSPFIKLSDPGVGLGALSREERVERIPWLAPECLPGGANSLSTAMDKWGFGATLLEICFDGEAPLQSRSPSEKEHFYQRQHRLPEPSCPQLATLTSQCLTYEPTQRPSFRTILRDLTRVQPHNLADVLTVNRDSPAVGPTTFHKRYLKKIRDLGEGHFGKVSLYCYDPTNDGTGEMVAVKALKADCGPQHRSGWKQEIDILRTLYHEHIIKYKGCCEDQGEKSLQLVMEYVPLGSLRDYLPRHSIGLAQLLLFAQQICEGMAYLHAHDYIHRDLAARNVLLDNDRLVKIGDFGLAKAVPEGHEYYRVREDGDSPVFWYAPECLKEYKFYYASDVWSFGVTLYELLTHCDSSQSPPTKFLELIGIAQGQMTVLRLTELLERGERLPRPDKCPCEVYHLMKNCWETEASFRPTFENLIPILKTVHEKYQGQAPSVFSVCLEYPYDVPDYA
Description: (§1) The membrane span protein (X) is fused to the C-terminal region of Tyk2 comprising the kinase domain, whereas the polypeptide interacting with the membrane span protein (Y) is fused to a fragment of gp130 which contains phosphorylation sites. When membrane span protein X and the polypeptide Y interact, the Tyk2 kinase domain phosphorylates the phosphorylation sites of gp130. STAT3 transcription factors are recruited to these phosphorylated sites and are in turn phosphorylated by the Tyk2 kinase domain, which results in their activation. Dimers of activated STAT3 transcription factors are able to bind the specific rPAPI promoter, which drives the expression of a firefly luciferase reporter gene. The activity of this reporter gene is measured as light production in a luciferase detection assay using a luminometer.
(§2) The fold induction for each sample was calculated as the ratio of the measured luciferase activity relative to the luciferase activity for the untreated sample of the same transfection.
The assay was further optimized by transferring the Tyk2(C) fusion construct into another vector system (pSVSport) and testing the resulting constructs in a similar experiment as described above. The following combinations of plasmids were transfected (500 ng of the Tyk2(C) fusion construct, 250 ng of the gp130 fusion construct and 50 ng of the luciferase reporter construct) according to the methods described above: […]

[4] = target: T3, human angiotensin receptor 1 (AGTR1) (Homo sapiens, UniProt P30556); test: Ligand-dependent AGTR1-ARRB2 interaction, Tyk2(C)/gp130 fusion STAT3-luciferase reporter assay; format: cell-based; settings: 10 μM angiotensin II; for effect of antagonist on AGTR1-ARRB2 interaction signal: 0.05 or 0.5 μM CYN154806, 0.1 or 1 μM losartan or telmisartan, FIG. 4 transfection d; for effect of antagonist on AGTR1-ARRB2 interaction signal, dose-response: antagonist 10^-13 M up to 10^-6 M
T3 construct: expressed in transfected cells; host or cells: HEK293-T
T3 sequence (P30556 with tags, fused parts or gaps): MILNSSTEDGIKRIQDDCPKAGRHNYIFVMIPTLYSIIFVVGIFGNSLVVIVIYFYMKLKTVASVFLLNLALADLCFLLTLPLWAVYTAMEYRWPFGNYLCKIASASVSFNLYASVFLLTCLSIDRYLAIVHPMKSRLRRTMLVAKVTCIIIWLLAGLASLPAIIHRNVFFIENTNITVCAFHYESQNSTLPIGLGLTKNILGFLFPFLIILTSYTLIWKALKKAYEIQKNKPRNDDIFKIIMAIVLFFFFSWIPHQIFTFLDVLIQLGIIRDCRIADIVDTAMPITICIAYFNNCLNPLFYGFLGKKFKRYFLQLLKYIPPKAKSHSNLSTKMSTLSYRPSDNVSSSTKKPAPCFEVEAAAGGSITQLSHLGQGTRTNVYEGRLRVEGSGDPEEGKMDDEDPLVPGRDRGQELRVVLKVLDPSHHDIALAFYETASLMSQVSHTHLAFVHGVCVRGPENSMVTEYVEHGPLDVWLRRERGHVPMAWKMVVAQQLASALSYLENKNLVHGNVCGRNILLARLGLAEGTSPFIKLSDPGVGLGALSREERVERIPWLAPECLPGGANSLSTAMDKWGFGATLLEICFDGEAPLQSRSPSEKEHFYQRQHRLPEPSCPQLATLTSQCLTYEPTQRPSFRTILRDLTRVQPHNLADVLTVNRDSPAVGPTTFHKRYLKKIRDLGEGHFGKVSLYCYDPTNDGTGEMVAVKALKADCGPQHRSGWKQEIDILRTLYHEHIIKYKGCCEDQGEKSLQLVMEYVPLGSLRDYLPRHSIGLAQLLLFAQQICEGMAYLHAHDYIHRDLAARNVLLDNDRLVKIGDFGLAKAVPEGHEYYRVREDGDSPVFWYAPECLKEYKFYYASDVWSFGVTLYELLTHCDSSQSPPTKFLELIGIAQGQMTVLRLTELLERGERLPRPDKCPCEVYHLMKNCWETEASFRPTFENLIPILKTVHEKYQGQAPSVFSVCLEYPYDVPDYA
Description: as §1
Transfections were carried out using a standard calcium phosphate method. HEK293-T cells were seeded in black tissue-culture treated 96-well plates at 10.000 cells/well in 100 μl culture medium (DMEM supplemented with 10% FCS). Twenty-four hours later, plasmid DNA mixes were prepared that contained plasmids encoding fusion proteins with the first and second interacting proteins and reporter plasmids. The DNA was supplemented with 5 μl 2.5M CaCl2) and double distilled water to a final volume of 50 μl. This mixture was added drop wise to 50 μl 2×HeBS buffer (280 mM NaCl, 1.5 mM Na2HPO4, 50 mM Hepes; pH 7.05) while vigorously vortexing. After incubation at room temperature for 15 min. to allow DNA precipitates to form, the solution was added to the cells at 10 μl/well. Cells were incubated at 37° C., 8% CO2. Twenty-four hours after transfection, cells were treated with the indicated amounts of ligand, either alone or combined with the indicated amount of antagonist. In the case of Irestatin 9389, cells were pre-treated with the antagonist before adding vehicle (DMSO) or tunicamycin. Another twenty-four hours later, luciferase activity was measured using the Luciferase Assay System kit (Promega) on a TopCount luminometer (Perkin-Elmer). Each transfection was done in triplicate and the average of the luciferase activity readings was used in the calculations.
as §2
Cells were transfected with the following combinations of plasmids (250 ng of the Tyk2(C) fusion construct, 250 ng of the gp130 fusion construct and 50 ng of the luciferase reporter construct) according to the methods described above:
Cells were transfected with 125 ng of the pMet7-SSTR2-Tyk2(C)−HA or pMet7-AGTR1-Tyk2(C)−HA fusion construct, 250 ng of the pMG2-ARRB2 gp130 fusion construct and 50 ng of the pXP2d2-rPAPI-luciferase reporter plasmid, according to the methods described above.

effect of antagonist on SSTR2-ARRB2 interaction signal [3]	effect of antagonist on SSTR2-ARRB2 interaction signal, dose-response [3]	effect of antagonist on AGTR1-ARRB2 interaction signal [4]	effect of antagonist on AGTR1-ARRB2 interaction signal, dose-response ([4]; FIG. 5B)	effect of telmisartan compared to losartan on AGTR1-ARRB2 interaction ([4]; dose-response, FIG. 5B)	Compound	ERN1 endonuclease activity (ERN1 [1])	disruption of ERN1 dimerization (ERN1 [2]; 1 μg/ml tunicamycin or vehicle (DMSO) combined with increasing doses of Irestatin 9389, FIG. 6D)	luciferase signal of ERN1 dimerization upon induction of ER-stress (ERN1 [2]; HEK293-T cells, ERN1-Tyk2(C) + ERN1-gp130, 0-0.5-1-2 μg/ml tunicamycin, FIG. 6A)
					Cc1csc(NC(=O)CSc2nc3c(c(C(F)(F)F)c2C#N)CCC3)n1 [Irestatin 9389]	inhibit ERN1 endonuclease activity	dose-dependent disruption of ERN1 dimerization	
no effect	no effect	selectively inhibited	selectively and completely inhibited		CCCCc1nc(Cl)c(CO)n1Cc1ccc(-c2ccccc2-c2nn[nH]n2)cc1 [losartan]			
no effect	no effect	selectively inhibited	selectively and completely inhibited	stronger effect	CCCc1nc2c(C)cc(-c3nc4ccccc4n3C)cc2n1Cc1ccc(-c2ccccc2C(=O)O)cc1 [telmisartan]			
					tunicamycin			dose-dependent signal
